From ChEMBL document CHEMBL1201862, “PubChem BioAssay data set” (2004)
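Exposure lasted 48 hours, with cells grown in 96-well plates and compounds tested at five concentrations. The concentration for 50% growth inhibition is given as GI50.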 Active and inactive are the calls of the source. Rule as the data show it: active = GI50 up to about 1.1 µM and inactive = higher.

Experiments:
Assay in all cases: NCI tumour cell line growth inhibition, 48 h
786-0 = tested on: 786-0
A549 = tested on: A549
ACHN = tested on: ACHN
DU-145 = tested on: DU-145
HCC 2998 = tested on: HCC 2998
IGROV-1 = tested on: IGROV-1
K562 = tested on: K562
M14 = tested on: M14
MDA-MB-435 = tested on: MDA-MB-435
Malme-3M = tested on: Malme-3M
NCI-H226 = tested on: NCI-H226
NCI/ADR-RES = tested on: NCI/ADR-RES
OVCAR-3 = tested on: OVCAR-3
OVCAR-5 = tested on: OVCAR-5
SW-620 = tested on: SW-620
U-251 = tested on: U-251
UACC-257 = tested on: UACC-257
A498 = tested on: A498
CCRF-CEM = tested on: CCRF-CEM
T47D = tested on: T47D

SMILES	GI50 (786-0)	GI50 (A549)	GI50 (ACHN)	GI50 (DU-145)	GI50 (HCC 2998)	GI50 (IGROV-1)	GI50 (K562)	GI50 (M14)	GI50 (MDA-MB-435)	GI50 (Malme-3M)	GI50 (NCI-H226)	GI50 (NCI/ADR-RES)	GI50 (OVCAR-3)	GI50 (OVCAR-5)	GI50 (SW-620)	GI50 (U-251)	GI50 (UACC-257)	GI50 (A498)	GI50 (CCRF-CEM)	GI50 (T47D)
COC(C(=O)NN)c1ccccc1 (centres undefined)	> 100 µM (inactive)	> 100 µM (inactive)	> 100 µM (inactive)	> 100 µM (inactive)	> 100 µM (inactive)	> 100 µM (inactive)	> 100 µM (inactive)	> 100 µM (inactive)	> 100 µM (inactive)	> 100 µM (inactive)	> 100 µM (inactive)	> 100 µM (inactive)	> 100 µM (inactive)	> 100 µM (inactive)	> 100 µM (inactive)	> 100 µM (inactive)	> 100 µM (inactive)			
c1ccc(C2SCc3nc4ccccc4n32)cc1 (centres undefined)	> 100 µM (inactive)	50.1 µM (inactive)	59.3 µM (inactive)		30.4 µM (inactive)	29.2 µM (inactive)	32.8 µM (inactive)	84.5 µM (inactive)		38.3 µM (inactive)	17.8 µM (inactive)		19.1 µM (inactive)	> 100 µM (inactive)	51.4 µM (inactive)	58.7 µM (inactive)	27.8 µM (inactive)	40.6 µM (inactive)	76.2 µM (inactive)	
COc1ccc(/C=C2\CCC(CN3CCOCC3)C2=O)cc1 (centres undefined)	1.65 µM (inactive)	9.57 µM (inactive)	4.73 µM (inactive)	2.23 µM (inactive)	5.48 µM (inactive)	4 µM (inactive)	1.03 µM (active)	2.16 µM (inactive)	2.05 µM (inactive)	3.01 µM (inactive)	18.9 µM (inactive)	2.62 µM (inactive)	3.28 µM (inactive)	9.06 µM (inactive)	1.79 µM (inactive)	17.3 µM (inactive)	2.37 µM (inactive)	9.44 µM (inactive)	1.38 µM (inactive)	
O=C(Cn1c(=O)oc2ccccc21)N(c1ccccc1)c1ccccc1	> 100 µM (inactive)		> 100 µM (inactive)	> 100 µM (inactive)		26.5 µM (inactive)	> 100 µM (inactive)	> 100 µM (inactive)	> 100 µM (inactive)	3.39 µM (inactive)	15.2 µM (inactive)	77.6 µM (inactive)	> 100 µM (inactive)	> 100 µM (inactive)	> 100 µM (inactive)	95.1 µM (inactive)	> 100 µM (inactive)	> 100 µM (inactive)	> 100 µM (inactive)	
CC(C)OC(=O)C1=C2c3ncccc3C(=O)N2[C@@H](Cl)[C@@H](Cl)[C@@H]1Cl	73.8 µM (inactive)	> 100 µM (inactive)	> 100 µM (inactive)	> 100 µM (inactive)	> 100 µM (inactive)	96.4 µM (inactive)	33.4 µM (inactive)	> 100 µM (inactive)	> 100 µM (inactive)	> 100 µM (inactive)	> 100 µM (inactive)	> 100 µM (inactive)	> 100 µM (inactive)	> 100 µM (inactive)	34.9 µM (inactive)	> 100 µM (inactive)	> 100 µM (inactive)	> 100 µM (inactive)		
Cc1nnc2n(c1=O)CCN2C	> 100 µM (inactive)	> 100 µM (inactive)	> 100 µM (inactive)	> 100 µM (inactive)	> 100 µM (inactive)	> 100 µM (inactive)	> 100 µM (inactive)	> 100 µM (inactive)	> 100 µM (inactive)	> 100 µM (inactive)	> 100 µM (inactive)		> 100 µM (inactive)	> 100 µM (inactive)	> 100 µM (inactive)	> 100 µM (inactive)			> 100 µM (inactive)	> 100 µM (inactive)
O=C1CCCC2=C1CC1=C(CCCC1=O)N2c1ccc(Cl)cc1	> 100 µM (inactive)	> 100 µM (inactive)	> 100 µM (inactive)	> 100 µM (inactive)	> 100 µM (inactive)	> 100 µM (inactive)	> 100 µM (inactive)	> 100 µM (inactive)	> 100 µM (inactive)	> 100 µM (inactive)	> 100 µM (inactive)	> 100 µM (inactive)	> 100 µM (inactive)	> 100 µM (inactive)	> 100 µM (inactive)	> 100 µM (inactive)	> 100 µM (inactive)	> 100 µM (inactive)	69.7 µM (inactive)	
CCOC(=O)C1=C(O)C(=O)c2ccoc2C1=O	> 100 µM (inactive)	> 100 µM (inactive)	> 100 µM (inactive)		> 100 µM (inactive)	> 100 µM (inactive)	> 100 µM (inactive)	> 100 µM (inactive)		> 100 µM (inactive)	> 100 µM (inactive)		> 100 µM (inactive)	> 100 µM (inactive)	> 100 µM (inactive)	> 100 µM (inactive)	> 100 µM (inactive)	> 100 µM (inactive)	> 100 µM (inactive)	
C#CC[N+](CCO)(CCO)CCCCCCCCCCCCCCCCCC		15.7 µM (inactive)			11.5 µM (inactive)	2.18 µM (inactive)	5.24 µM (inactive)			18.4 µM (inactive)	12.6 µM (inactive)	20.2 µM (inactive)	13.5 µM (inactive)	14.8 µM (inactive)	15.7 µM (inactive)	6.47 µM (inactive)	15.8 µM (inactive)	17.2 µM (inactive)	2.03 µM (inactive)	
C=CCC1(CN(C)C)CC/C(=C\c2ccc(OC)cc2)C1=O (centres undefined)	65.8 µM (inactive)	> 100 µM (inactive)	> 100 µM (inactive)		38.7 µM (inactive)	> 100 µM (inactive)	32.9 µM (inactive)	74.5 µM (inactive)		79.3 µM (inactive)	> 100 µM (inactive)		> 100 µM (inactive)	> 100 µM (inactive)	30.9 µM (inactive)	89.5 µM (inactive)	38 µM (inactive)	73.5 µM (inactive)	34.8 µM (inactive)	
COc1cc(C2SCC(=O)N2c2ccccc2Cl)cc(OC)c1OC (centres undefined)	> 100 µM (inactive)	> 100 µM (inactive)	> 100 µM (inactive)	> 100 µM (inactive)	> 100 µM (inactive)	> 100 µM (inactive)	> 100 µM (inactive)	> 100 µM (inactive)	23.7 µM (inactive)		> 100 µM (inactive)	88.5 µM (inactive)	> 100 µM (inactive)	> 100 µM (inactive)	> 100 µM (inactive)	> 100 µM (inactive)	> 100 µM (inactive)	> 100 µM (inactive)	80.4 µM (inactive)	
C[N+](C)(C)CC(=O)N/N=c1\cc(C(=O)Nc2ccc(N=O)cc2C#N)oc2cc(O)ccc12	> 100 µM (inactive)	> 100 µM (inactive)	> 100 µM (inactive)		> 100 µM (inactive)	> 100 µM (inactive)	> 100 µM (inactive)	> 100 µM (inactive)		> 100 µM (inactive)	> 100 µM (inactive)		> 100 µM (inactive)	> 100 µM (inactive)	> 100 µM (inactive)	> 100 µM (inactive)	> 100 µM (inactive)	> 100 µM (inactive)	> 100 µM (inactive)	
O=C1C2=C(c3ccccc31)C(c1ccccc1Cl)N1C(=O)CSC1=N2 (centres undefined)	> 100 µM (inactive)	> 100 µM (inactive)	> 100 µM (inactive)		> 100 µM (inactive)	> 100 µM (inactive)	50.4 µM (inactive)	> 100 µM (inactive)		> 100 µM (inactive)	> 100 µM (inactive)		87.3 µM (inactive)	> 100 µM (inactive)	> 100 µM (inactive)	> 100 µM (inactive)	> 100 µM (inactive)	> 100 µM (inactive)	44.3 µM (inactive)	
Fc1ccc(/N=N/N2CCCC2)cc1	> 100 µM (inactive)	> 100 µM (inactive)	68.4 µM (inactive)	52.5 µM (inactive)	15.5 µM (inactive)	82.4 µM (inactive)	4.66 µM (inactive)	> 100 µM (inactive)	37.2 µM (inactive)	> 100 µM (inactive)	> 100 µM (inactive)		> 100 µM (inactive)	> 100 µM (inactive)	> 100 µM (inactive)	> 100 µM (inactive)	57.4 µM (inactive)	> 100 µM (inactive)	52.2 µM (inactive)	19.2 µM (inactive)
CCC(C)[C@@H](NCc1ccccc1)[C@H](OCc1ccccc1)[C@@H]1COC(C)(C)O1 (some centres undefined)	18.8 µM (inactive)	25.4 µM (inactive)	20.9 µM (inactive)	27.4 µM (inactive)		17.6 µM (inactive)	20.3 µM (inactive)	29.2 µM (inactive)	32.5 µM (inactive)	18.4 µM (inactive)	14.8 µM (inactive)	21.1 µM (inactive)	28.7 µM (inactive)	26.1 µM (inactive)	18 µM (inactive)	19.2 µM (inactive)	18.7 µM (inactive)		27.1 µM (inactive)	
Cc1cccc(CNNC(=O)c2cc[n+]([BH2-]C#N)cc2)c1	30.7 µM (inactive)	39.1 µM (inactive)	42.6 µM (inactive)	24.7 µM (inactive)	22.4 µM (inactive)	22 µM (inactive)	26.9 µM (inactive)	37.9 µM (inactive)	28.3 µM (inactive)	15 µM (inactive)	23.9 µM (inactive)	24.7 µM (inactive)	32.1 µM (inactive)	37.5 µM (inactive)	34 µM (inactive)	39.5 µM (inactive)	37.6 µM (inactive)	24.7 µM (inactive)	23.9 µM (inactive)	
